# Measured values taken from patent US20200188466A1, “COMPOSITIONS OF SCHISANDRA EXTRACTS AND METHODS THEREOF” (Reyoung Corporation, priority 2017, published 2020).
# Where two headings read alike, the source gives them in different places.
# Test: Plasma kinetic study of colchicine with and without Schisandrin A
# Type: in vivo
# Settings: male, Sprague Dawley, rat, po, 3 mg/kg; for AUC(0-t): read-out: AUC0→t of colchicine; for AUC(0-inf): read-out: AUC0→∞ of colchicine; for MRT last: read-out: MRT0→t of colchicine; for MRT inf: read-out: MRT0→∞ of colchicine; for half-life: read-out: T1/2 of colchicine (converted)
# Description: 42 Male Sprague Dawley rats (weight, 170-210 g) were maintained on a 12-h light/dark cycle with free access to water and lab chow for 10-14 h prior to the experiment. Rats were randomly divided into 7 groups (n=6 each) and groups 2-7 received 0 mg/kg, 6.3 mg/kg, and 12.6 mg/kg, 25.2 mg/kg, 50.4 mg/kg and 63.0 mg/kg of Schisandrin A in 1% CMC-Na (300-800 cps) via oral administration, respectively. After 5 minutes, all the groups received 3.0 mg/kg of colchicine in a solution of 2% DMSO-98% sterile water via oral administration.
# After colchicine treatment, blood samples were collected from individual rat at 5 min, 15 min, 0.5 h, 1 h, 2 h, 4 h, 6 h, 8 h, 10 h, 24 h respectively. Plasma was separated by centrifugation at 8000 rpm for 6 minutes at 4° C. and kept at −80° C. until analysis. Plasma homogenate was injected into LC-MS/MS for analysis. Pharmacokinetic parameters of colchicine after a single oral dose of colchicine (3.0 mg/kg) in rats with and without different dose of Schisandrin A, including area under the concentration-time curve (AUC), mean residence time (MRT) and terminal elimination half-life (T1/2), Cmax, and Tmax are shown in Table 5.
# [1] = Group1, rats, colchicine 3.0 mg/kg oral, no Schisandrin A dose stated
# [2] = Group2, rats, Schisandrin A 0 mg/kg oral 5 min before colchicine 3.0 mg/kg oral
# [3] = Group3, rats, Schisandrin A 6.3 mg/kg oral 5 min before colchicine 3.0 mg/kg oral
# [4] = Group4, rats, Schisandrin A 12.6 mg/kg oral 5 min before colchicine 3.0 mg/kg oral
# [5] = Group5, rats, Schisandrin A 25.2 mg/kg oral 5 min before colchicine 3.0 mg/kg oral
# [6] = Group6, rats, Schisandrin A 50.4 mg/kg oral 5 min before colchicine 3.0 mg/kg oral
# [7] = Group7, rats, Schisandrin A 63.0 mg/kg oral 5 min before colchicine 3.0 mg/kg oral
smiles,measurement,setting,value
COc1cc2c(c(OC)c1OC)-c1ccc(OC)c(=O)cc1[C@@H](NC(C)=O)CC2 [colchicine],Cmax,[1],13.4 ± 4.38 ng/mL
same,Tmax,[1],10.2 ± 5.4 min
same,AUC(0-t),[1],48.9 ± 14.9 ng·h/mL
same,AUC(0-inf),[1],57.5 ± 16.1 ng·h/mL
same,MRT last,[1],4.54 ± 1.33 h
same,MRT inf,[1],6.99 ± 1.99 h
same,half-life,[1],312 ± 139 min
same,Cmax,[2],10.2 ± 2.63 ng/mL
same,Tmax,[2],13.2 ± 4.2 min
same,AUC(0-t),[2],32.9 ± 20.9 ng·h/mL
same,AUC(0-inf),[2],40.6 ± 22.2 ng·h/mL
same,MRT last,[2],3.89 ± 1.74 h
same,MRT inf,[2],6.86 ± 2.77 h
same,half-life,[2],280 ± 122 min
same,Cmax,[3],24.4 ± 6.12 ng/mL
same,Tmax,[3],11.4 ± 5.4 min
same,AUC(0-t),[3],74.4 ± 27 ng·h/mL
same,AUC(0-inf),[3],84.5 ± 30.5 ng·h/mL
same,MRT last,[3],5.04 ± 1.86 h
same,MRT inf,[3],7.67 ± 3.34 h
same,half-life,[3],367 ± 172 min
same,Cmax,[4],25.7 ± 9.67 ng/mL
same,Tmax,[4],11.4 ± 5.4 min
same,AUC(0-t),[4],71 ± 33.3 ng·h/mL
same,AUC(0-inf),[4],79.7 ± 34.9 ng·h/mL
same,MRT last,[4],3.95 ± 1.2 h
same,MRT inf,[4],6.54 ± 3.18 h
same,half-life,[4],394 ± 282 min
same,Cmax,[5],29.3 ± 11.9 ng/mL
same,Tmax,[5],6.6 ± 4.2 min
same,AUC(0-t),[5],75.5 ± 27.6 ng·h/mL
same,AUC(0-inf),[5],86.8 ± 36.2 ng·h/mL
same,MRT last,[5],4.04 ± 1.44 h
same,MRT inf,[5],7.29 ± 4.72 h
same,half-life,[5],452 ± 389 min
same,Cmax,[6],48.2 ± 12.4 ng/mL
same,Tmax,[6],18.6 ± 9.6 min
same,AUC(0-t),[6],151 ± 41.4 ng·h/mL
same,AUC(0-inf),[6],186 ± 70.5 ng·h/mL
same,MRT last,[6],5.1 ± 0.77 h
same,MRT inf,[6],11.7 ± 6.87 h
same,half-life,[6],783 ± 377 min
same,Cmax,[7],33.8 ± 14 ng/mL
same,Tmax,[7],15.6 ± 7.8 min
same,AUC(0-t),[7],84.8 ± 39.3 ng·h/mL
same,AUC(0-inf),[7],98.7 ± 41.9 ng·h/mL
same,MRT last,[7],4.09 ± 1.76 h
same,MRT inf,[7],7.52 ± 3.62 h
same,half-life,[7],455 ± 219 min
